≈ marks a conversion by molar mass, not a printed value.

In this assay the test system is S. pneumoniae ATCC 49619. Briefly: Minimal inhibitory concentration (MIC) by broth microdilution (CLSI M7-A7). In kind it is cell-based, Streptococcus pneumoniae. As to conditions: Streptococcus pneumoniae, ATCC49619; cation-adjusted Mueller Hinton Broth supplemented with 3% (v/v) lysed horse blood; microdilution method. On the procedure:
Minimal inhibitory concentrations (MICs; mg/l) were determined in cation-adjusted MuellerHinton Broth (supplemented with 3% (v/v) lysed horse blood for testing Streptococcus pneumoniae) by a microdilution method following the description given in “Methods for Dilution Antimicrobial Susceptibility Tests for Bacteria that Grow Aerobically”, Approved standard, 7th ed., a Clinical and Laboratory Standards Institute (CLSI) Document M7-A7, Wayne, Pa., USA, 2006.
As for `C#CC(=O)NCc1ccc(-c2ccncc2)c2cc(NC(=O)NCC)ncc12` [Example 75, propynoic acid [3-(3-ethyl-ureido)-5-pyridin-4-yl-isoquinolin-8-ylmethyl]-amide], the MIC was determined as 0.25 µg/mL (≈ 0.669 µM).
Under `CCNC(=O)Nc1cc2c(-c3ccncc3)ccc(CNC(=O)OC(C)(C)C)c2cn1` [Example 76, [3-(3-ethyl-ureido)-5-pyridin-4-yl-isoquinolin-8-ylmethyl]-carbamic acid tert-butyl ester] stands 0.25 µg/mL (≈ 0.593 µM); under `CCNC(=O)Nc1cc2c(-c3ccncc3)ccc(CNC(=O)OC(C)C)c2cn1` [Example 77, [3-(3-ethyl-ureido)-5-pyridin-4-yl-isoquinolin-8-ylmethyl]-carbamic acid isopropyl ester], 0.5 µg/mL (≈ 1.23 µM).
Under `CCNC(=O)Nc1cc2c(-c3ccncc3)ccc(CNC(=O)OCCN(C)C)c2cn1` [Example 78, [3-(3-ethyl-ureido)-5-pyridin-4-yl-isoquinolin-8-ylmethyl]-carbamic acid 2-dimethylamino-ethyl ester] stands 4 µg/mL (≈ 9.16 µM); under `CCNC(=O)Nc1cc2c(-c3ccncc3)ccc(CNC(=O)OC)c2cn1` [Example 79, [3-(3-ethyl-ureido)-5-pyridin-4-yl-isoquinolin-8-ylmethyl]-carbamic acid methyl ester], 0.25 µg/mL (≈ 0.659 µM); under `CCNC(=O)Nc1cc2c(-c3ccncc3)ccc(CNC(=O)OCCN3CCCC3)c2cn1` [Example 80, [3-(3-ethyl-ureido)-5-pyridin-4-yl-isoquinolin-8-ylmethyl]-carbamic acid 2-pyrrolidin-1-yl-ethyl ester], 8 µg/mL (≈ 17.3 µM).
Then `CCNC(=O)Nc1cc2c(-c3ccncc3)ccc(CNC(=O)OCCNC(=O)OC(C)(C)C)c2cn1` [Example 81, [3-(3-ethyl-ureido)-5-pyridin-4-yl-isoquinolin-8-ylmethyl]-carbamic acid 2-tert-butoxycarbonylamino-ethyl ester], with 0.5 µg/mL (≈ 0.983 µM).
For `CCNC(=O)Nc1cc2c(-c3ccncc3)ccc(CNC(=O)OCCN(C)C(=O)OC(C)(C)C)c2cn1` [Example 82, tert-butyl (2-((((3-(3-ethylureido)-5-(pyridin-4-yl)isoquinolin-8-yl)methyl)carbamoyl)oxy)ethyl)(methyl)carbamate], the MIC came out at 2 µg/mL (≈ 3.83 µM).
Then `CCNC(=O)Nc1cc2c(-c3ccncc3)ccc(CNC(=O)OCCN3CCN(C(=O)OC(C)(C)C)CC3)c2cn1` [Example 83, tert-butyl 4-(2-((((3-(3-ethylureido)-5-(pyridin-4-yl)isoquinolin-8-yl)methyl)carbamoyl)oxy)ethyl)piperazine-1-carboxylate], with 1 µg/mL (≈ 1.73 µM).
In the case of `CCNC(=O)Nc1cc2c(-c3ccncc3)ccc(CNC(=O)OCC3CC3)c2cn1.Cl` [Example 84, [3-(3-ethyl-ureido)-5-pyridin-4-yl-isoquinolin-8-ylmethyl]-carbamic acid cyclopropylmethyl ester hydrochloride], the MIC was 0.5 µg/mL.
Under `CCNC(=O)Nc1cc2c(-c3ccncc3)ccc(CNC(=O)OCCCN3CCCC3=O)c2cn1.Cl` [Example 85, [3-(3-ethyl-ureido)-5-pyridin-4-yl-isoquinolin-8-ylmethyl]-carbamic acid 3-(2-oxo-pyrrolidin-1-yl)-propyl ester hydrochloride] stands 1 µg/mL; under `CCNC(=O)Nc1cc2c(-c3ccncc3)ccc(CNC(=O)OC[C@@H]3CCC(=O)N3)c2cn1.Cl` [Example 87, (S)-[3-(3-ethyl-ureido)-5-pyridin-4-yl-isoquinolin-8-ylmethyl]-carbamic acid 5-oxo-pyrrolidin-2-ylmethyl ester hydrochloride], 0.25 µg/mL.
Compound `CCNC(=O)Nc1cc2c(-c3ccncc3)ccc(CNC(=O)OCc3cncn3C)c2cn1.Cl` [Example 88, [3-(3-ethyl-ureido)-5-pyridin-4-yl-isoquinolin-8-ylmethyl]-carbamic acid 3-methyl-3H-imidazol-4-ylmethyl ester hydrochloride] had an MIC of 2 µg/mL.
Under `CCNC(=O)Nc1cc2c(-c3ccncc3)ccc(CNC(=O)OCCCN(C)C)c2cn1.Cl` [Example 89, [3-(3-ethyl-ureido)-5-pyridin-4-yl-isoquinolin-8-ylmethyl]-carbamic acid 3-dimethylamino-propyl ester hydrochloride] stands 8 µg/mL.
Under `CCNC(=O)Nc1cc2c(-c3ccncc3)ccc(CNC(=O)CCCO)c2cn1` [Example 90, N-[3-(3-ethyl-ureido)-5-pyridin-4-yl-isoquinolin-8-ylmethyl]-4-hydroxy-butyramide] stands 2 µg/mL (≈ 4.91 µM); under `CCNC(=O)Nc1cc2c(-c3ccncc3)ccc(CNC(=O)OCCN3CCOCC3)c2cn1.Cl` [Example 91, [3-(3-ethyl-ureido)-5-pyridin-4-yl-isoquinolin-8-ylmethyl]-carbamic acid 2-morpholin-4-yl-ethyl ester hydrochloride], 1 µg/mL; under `CCNC(=O)Nc1cc2c(-c3ccncc3)ccc(CNC(=O)OCCCN3CCCCC3)c2cn1.Cl` [Example 92, [3-(3-ethyl-ureido)-5-pyridin-4-yl-isoquinolin-8-ylmethyl]-carbamic acid 3-piperidin-1-yl-propyl ester hydrochloride], 4 µg/mL.
The compound `CCNC(=O)Nc1cc2c(-c3ccncc3)ccc(CNC(=O)OCCN3CCNC3=O)c2cn1.Cl` [Example 93, [3-(3-ethyl-ureido)-5-pyridin-4-yl-isoquinolin-8-ylmethyl]-carbamic acid 2-(2-oxo-imidazolidin-1-yl)-ethyl ester hydrochloride] came in with an MIC of 8 µg/mL.
Under `CCNC(=O)Nc1cc2c(-c3ccncc3)ccc(CNC(=O)OCCCOC)c2cn1.Cl` [Example 94, [3-(3-ethyl-ureido)-5-pyridin-4-yl-isoquinolin-8-ylmethyl]-carbamic acid 3-methoxy-propyl ester hydrochloride] stands 0.5 µg/mL; under `CCNC(=O)Nc1cc2c(-c3ccncc3)ccc(CNC(=O)CCCOC)c2cn1` [Example 95, N-[3-(3-ethyl-ureido)-5-pyridin-4-yl-isoquinolin-8-ylmethyl]-4-methoxy-butyramide], 0.5 µg/mL (≈ 1.19 µM).
Then `CCNC(=O)Nc1cc2c(-c3ccncc3)ccc(CNC(=O)OCC(N)=O)c2cn1.Cl` [Example 96, [3-(3-ethyl-ureido)-5-pyridin-4-yl-isoquinolin-8-ylmethyl]-carbamic acid carbamoylmethyl ester hydrochloride], with 2 µg/mL.
Then `CCNC(=O)Nc1cc2c(-c3ccncc3)ccc(CNC(=O)OCCN3C(=O)CCC3=O)c2cn1.Cl` [Example 97, [3-(3-ethyl-ureido)-5-pyridin-4-yl-isoquinolin-8-ylmethyl]-carbamic acid 2-(2,5-dioxo-pyrrolidin-1-yl)-ethyl ester hydrochloride], with 2 µg/mL; and `CCNC(=O)Nc1cc2c(-c3ccncc3)ccc(CNC(=O)OCCN3CCCCC3)c2cn1.Cl` [Example 98, [3-(3-ethyl-ureido)-5-pyridin-4-yl-isoquinolin-8-ylmethyl]-carbamic acid 2-piperidin-1-yl-ethyl ester hydrochloride], with 4 µg/mL.
In turn, `CCNC(=O)Nc1cc2c(-c3ccncc3)ccc(CNC(=O)OCC(C)C)c2cn1.Cl` [Example 99, [3-(3-ethyl-ureido)-5-pyridin-4-yl-isoquinolin-8-ylmethyl]-carbamic acid isobutyl ester hydrochloride] showed an MIC of 0.5 µg/mL.
`CCNC(=O)Nc1cc2c(-c3ccncc3)ccc(CNC(=O)OCC[C@H]3CCCNC3)c2cn1.Cl` [Example 100, [3-(3-ethyl-ureido)-5-pyridin-4-yl-isoquinolin-8-ylmethyl]-carbamic acid (R)-2-piperidin-3-yl-ethyl ester hydrochloride] displayed an MIC of 8 µg/mL.
Then `CCNC(=O)Nc1cc2c(-c3ccncc3)ccc(CNC(=O)OC[C@H]3CC[C@H](CN)CC3)c2cn1.Cl` [Example 101, trans-[3-(3-ethyl-ureido)-5-pyridin-4-yl-isoquinolin-8-ylmethyl]-carbamic acid 4-(aminomethyl)-(cyclohexylmethyl) ester hydrochloride], with 2 µg/mL; and `CCNC(=O)Nc1cc2c(-c3ccncc3)ccc(CNC(=O)OCC[C@@H](O)CO)c2cn1.Cl` [Example 102, (R)-[3-(3-ethyl-ureido)-5-pyridin-4-yl-isoquinolin-8-ylmethyl]-carbamic acid 3,4-dihydroxy-butyl ester hydrochloride], with 1 µg/mL; and `CCNC(=O)Nc1cc2c(-c3ccncc3)ccc(CNC(=O)OCCC(=O)O)c2cn1` [Example 104, 3-((((3-(3-ethylureido)-5-(pyridin-4-yl)isoquinolin-8-yl)methyl)carbamoyl)oxy)propanoic acid], with 8 µg/mL (≈ 18.3 µM).
Then `CCNC(=O)Nc1cc2c(-c3ccncc3)ccc(CNC(=O)OCCC(=O)OC)c2cn1.Cl` [Example 105, methyl 3-((((3-(3-ethylureido)-5-(pyridin-4-yl)isoquinolin-8-yl)methyl)carbamoyl)oxy)propanoate hydrochloride], with 4 µg/mL; and `CCNC(=O)Nc1cc2c(-c3ccncc3)ccc(CNC(=O)OCC#CCO)c2cn1` [Example 106, [3-(3-ethyl-ureido)-5-pyridin-4-yl-isoquinolin-8-ylmethyl]-carbamic acid 4-hydroxy-but-2-ynyl ester], with 0.25 µg/mL (≈ 0.577 µM); and `CCNC(=O)Nc1cc2c(-c3ccncc3)ccc(CNC(=O)OCCO)c2cn1` [Example 107, [3-(3-ethyl-ureido)-5-pyridin-4-yl-isoquinolin-8-ylmethyl]-carbamic acid 2-hydroxy-ethyl ester], with 1 µg/mL (≈ 2.44 µM).
Under `CCNC(=O)Nc1cc2c(-c3ccncc3)ccc(CNC(=O)OCC#CCN)c2cn1` [Example 109, [3-(3-ethyl-ureido)-5-pyridin-4-yl-isoquinolin-8-ylmethyl]-carbamic acid 4-amino-but-2-ynyl ester] stands 2 µg/mL (≈ 4.62 µM).

What is called MIC is the lowest concentration found to suppress growth.

For the origin of these results see patent publication US8889676B2, “3-ureidoisoquinolin-8-yl derivatives” (Actelion Pharmaceuticals Ltd., priority 2011, dated 2014).
